From publication PMC11507441, “Oilseed Cakes: A Promising Source of Antioxidant, and Anti-Inflammatory Agents—Insights from Lactuca sativa” (International Journal of Molecular Sciences, 2024)
Values after ≈ are worked out from the molar mass of the structure shown. Read-outs that look alike come from different tables or passages of the source.

Tests used:
C. albicans = assay: Antimicrobial screening, zone of inhibition; type: cell-based; details: Table 1; for zone of inhibition at 1000 µg/mL: Candida albicans, isolated compounds 1 mg/mL, read-out: C. Albicans Diameter of Inhibition Zone (mm); for C. Albicans %Activity Index: 1 mg/mL, relative to clotrimazole
Experimental: (§1) The procedure was performed according to […] et al.. A comparison of the extract's zone of inhibition to that of a reference antibiotic's activity index was determined using the following equation:Activity index = (the inhibition zone of extract/the inhibition zone of the standard) × 100

E. coli = assay: Antimicrobial screening, zone of inhibition; type: cell-based; details: Table 1; for zone of inhibition at 1000 µg/mL: Escherichia coli, isolated compounds 1 mg/mL, read-out: E. coli Diameter of Inhibition Zone (mm); for E. coli %Activity Index: 1 mg/mL, relative to ciprofloxacin
Experimental: as §1

S. aureus = assay: Antimicrobial screening, zone of inhibition; type: cell-based; details: Table 1; for zone of inhibition at 1000 µg/mL: Staphylococcus aureus, isolated compounds 1 mg/mL, read-out: S. aureus Diameter of Inhibition Zone (mm); for S. aureus %Activity Index: 1 mg/mL, relative to ciprofloxacin
Experimental: as §1

P. aeruginosa = assay: Antimicrobial screening, zone of inhibition; type: cell-based; details: Table 1; for zone of inhibition at 1000 µg/mL: Pseudomonas aeruginosa, isolated compounds 1 mg/mL, read-out: P. aeruginosa Diameter of Inhibition Zone (mm); for P. aeruginosa %Activity Index: 1 mg/mL, relative to ciprofloxacin
Experimental: The procedure was performed according to Stylianakis et al.. A comparison of the extract’s zone of inhibition to that of a reference antibiotic’s activity index was determined using the following equation:Activity index = (the inhibition zone of extract/the inhibition zone of the standard) × 100

HepG-2 cancer cell line = assay: Cytotoxic activity (MTT assay); type: cell-based; details: for IC50: Homo sapiens; for Selectivity Index HepG2: IC50 normal (WI-38)/IC50 cancer
Experimental: (§2) The HPLC was performed in the Institute for Plant Biology, TU Braunschweig, using a Young Lin quaternary pump, vacuum degasser, column oven (40 °C), diode array detector (YL9160 PDA), and a Midas Spark Holland autosampler. UV spectra (λ max) were measured in the central laboratory of the Faculty of Pharmaceutical Science at Mansoura University using spectroscopic methanol with an ultraviolet-visible spectrophotometer (Shimadzu 1601 PC, version TCC-240A, Kyoto, Japan). The NMR unit of Mansoura University’s Faculty of Pharmacy obtained nuclear magnetic resonance spectra (^1H-NMR, ^13C-NMR, DEPT-Q, APT, HSQC, and HMBC) using a Bruker DRX 600 NMR spectrometer (600 and 150 MHz for ^1H and ^13C-NMR, respectively) and with the Bruker Corporation Avance III 400 spectrometer, which measures ^1H and ^13C-NMR at 400 and 100 MHz, respectively. The types of solvents that are used are CDCl3, CD3OD, and DMSO-d6. For normal phase chromatography, silica gel G 60–230 mesh (Merck, Darmstadt, Germany) was packed using a wet or dry method in the specified solvent. The purchase of Normal Human lung fibroblast (WI-38), hepatic cancer cell lines (HePG-2), and mammary gland (MCF-7) cell lines from ATCC was made possible by the Holding firm for biological goods and vaccines (VACSERA), which is based in Cairo, Egypt.
(§3) Using the MTT test, the inhibitory effects of substances on cell growth were ascertained using the cell lines compared to normal lung fibroblast cells (WI-38). The selectivity index was calculated via the Selectivity index (SI) equation: SI equals IC50 normal/IC50 cancer.

MCF-7 cancer cell line = assay: Cytotoxic activity (MTT assay); type: cell-based; details: for IC50: Homo sapiens; for Selectivity Index MCF-7: IC50 normal (WI-38)/IC50 cancer
Experimental: as §2, §3

[1] = Cytotoxic activity (MTT assay), normal cells; type: cell-based; details: human
Experimental: as §2, §3

[2] = tested on: carrageenan-induced paw oedema; assay: Carrageenan-induced paw oedema; type: in vivo; details: dose 10 mg/kg oral, rat
Experimental: Adult albino rats 180-220 g of both sexes used in the investigation were acquired from the Mansoura University Faculty of Pharmacy's Animal House. Standard laboratory diet and water were provided, and they were housed in cages maintained at a constant temperature of 22 ± 2 °C. The Animal Care and Use Committee (MU-ACUC) of Mansoura University, Egypt, has approved all procedures involving animals with code number: […] Throughout the experiment, medications and extracts were given orally in doses of 1 mL/100 g of the rat's body weight after being solubilized in carboxymethyl cellulose (CMC) in order to create a suspension formula. In this test, rats were divided into six groups, with each group containing 5 animals. Group-1: […] Group-2: Positive control (carrageenan-induced oedema, Sigma (St. Louis, MO, USA)) without any treatment. […] Group-4: […] extract of Lactuca sativa was administered at a 2 g/kg dose. Group-5: Compound (1) is administered at a dose of 20 mg/kg. Group-6: Compound (1) at a dose of 40 mg/kg. Group-7: Combination of standard and compound (1) at doses of (10 + 20) mg/kg, respectively. […] Using a digital vernier calliper, the swelling of the paw that had been injected with carrageenan was measured prior to injection as well as 1, 2, 3, 4, and 5 h following the treatment's induction. The percentage inhibition of oedema in the test animals treated with the extract compared to the carrageenan control group was used to calculate the anti-inflammatory activity. The formula […] was used to calculate the percentage inhibition of inflammation, where “dt” represents the difference in paw volume in the drug-treated group and “dc” represents the difference in paw volume relative to the control group. Moreover, “I” represents the suppression of inflammation.

dermal inflammation = assay: Histopathological assessment of paw skin tissue (carrageenan model); type: in vivo, rat; details: Group 3, ibuprofen 10 mg/kg; 5 h after carrageenan
From the text: Five hours following the carrageenan injection, tissue specimen samples from the paw skin tissue of every group under study were removed for histological examination. Prior to being submerged in paraffin blocks, they were fixed in a 10% formalin solution and stained with hematoxylin-eosin. Using a microtome, paraffin sections with a thickness of 5 µm were cut, and hematoxylin and eosin were frequently applied to the sections. Microscopically, these tissue slices were inspected. Consequently, the sections were examined under a light microscope; on the other hand, photos taken with a digital camera (Canon Power-shot D10) recorded the progression of paw oedema.

GPx = GPx activity in rat paw tissue homogenate (carrageenan model); type: in vivo
Experimental: (§4) The levels of inflammatory mediators (IL-1β, TNF-α, and PGE2) in rat paw tissue homogenate were measured using the following Kits: Rat TNF-α (Tumor Necrosis Factor Alpha) ELISA Kit from Elabscience® Company, Houston, TX, USA, Interleukin 1 Beta (IL-1b) Organism Species: Rattus norvegicus (Rat) from Cloud Clone Crop Company and Rat PGE2 (Prostaglandin E2) ELISA Kit from Fine test® company Hubei, China. In addition, oxidative stress parameters in rat paw tissue homogenate were measured using superoxide dismutase, glutathione peroxidase, and catalase Kits from the Biodiagnostic company, Birmingham, UK.
(§5) Rats were slaughtered, and their paw tissues were gathered and weighed five hours after the carrageenan was administered. The tissues underwent processing after being fixed in 10% formalin. Rat paw tissue was homogenized, and its oxidative stress indices (SOD, CAT, and GPx) as well as the levels of inflammatory mediators (IL-1β, TNF-α, and PGE2) were measured.

CAT = CAT activity in rat paw tissue homogenate (carrageenan model); type: in vivo; details: paw tissue 5 h after carrageenan; ibuprofen 10 mg/kg
Experimental: as §4, §5

SOD = SOD activity in rat paw tissue homogenate (carrageenan model); type: in vivo
Experimental: as §4, §5

ABTS antioxidant assay = type: biochemical; design: IC50 in ABTS assay: unit not given beside the values
Experimental: The experiment was performed in triplicate according to Zaky et al.. The absorbance of control of the resulting green-blue solution (ABTS* radical solution) was recorded at λ max 734 nm.

[3] = HepG2, read-out: In Vitro Cytotoxicity IC50 (µg/mL) HepG-2
[4] = MCF7, read-out: In Vitro Cytotoxicity IC50 (µg/mL) MCF-7
[5] = paw tissue 5 h after carrageenan, ibuprofen 10 mg/kg

SMILES	zone of inhibition at 1000 µg/mL (C. albicans) [mm]	C. Albicans %Activity Index (C. albicans) [%]	zone of inhibition at 1000 µg/mL (E. coli) [mm]	E. coli %Activity Index (E. coli) [%]	zone of inhibition at 1000 µg/mL (S. aureus) [mm]	S. aureus %Activity Index (S. aureus) [%]	zone of inhibition at 1000 µg/mL (P. aeruginosa) [mm]	P. aeruginosa %Activity Index (P. aeruginosa) [%]	IC50 (HepG-2 cancer cell line; [3]) [µg/mL]	Selectivity Index HepG2 (HepG-2 cancer cell line)	IC50 (MCF-7 cancer cell line; [4]) [µg/mL]	Selectivity Index MCF-7 (MCF-7 cancer cell line)	IC50 [1] [µg/mL]	further results
O=c1cc(-c2ccc(O)c(O)c2)oc2cc(O)cc(O)c12 [Compound 2, luteolin]	10.7 ± 0.15	40.5	9.8 ± 0.2	37.8	17 ± 0.1	71.7	12.9 ± 0.1	56.6	19.5 ± 1.3 (≈ 68.1 µM)	3	11.6 ± 0.9 (≈ 40.6 µM)	5.1	59.3 ± 3.2 (≈ 207 µM)	–
CCC(CC[C@@H](C)C1CCC2C3CC=C4C[C@@H](O[C@@H]5O[C@H](CO)[C@@H](O)[C@H](O)[C@H]5O)CC[C@]4(C)C3CC[C@@]21C)C(C)C (stereo partly drawn) [Compound 5, β-sitosterol 3-O-β-D-glucoside]	4.9 ± 0.1	18.2	5.1 ± 0.1	19.6	10.8 ± 0.2	49.6	7.9 ± 0.1	34.5	–	0.54	–	0.66	–	IC50 (HepG-2 cancer cell line; HepG2, MTT, read-out: In Vitro Cytotoxicity IC50 (µg/mL) HepG-2): 63.6 ± 3.4 µg/mL (≈ 110 µM); IC50 (MCF-7 cancer cell line; MCF7, MTT, read-out: In Vitro Cytotoxicity IC50 (µg/mL) MCF-7): 52.8 ± 2.9 µg/mL (≈ 91.5 µM); IC50 ([1]; WI-38 normal lung fibroblast cells, MTT, normal cells, read-out: In Vitro Cytotoxicity IC50 (µg/mL) WI-38): 34.8 ± 2.1 µg/mL (≈ 60.3 µM)
O=c1cc(-c2ccc(O)c(O)c2)oc2cc(O[C@@H]3O[C@H](CO)[C@@H](O)[C@H](O)[C@H]3O)cc(O)c12 [Compound 3, luteolin 7-O-β-D-glucoside]	9.87 ± 0.15	36.7	8.8 ± 0.15	33.8	14.8 ± 0.15	61.9	11.8 ± 0.25	51.5	24.8 ± 1.9 (≈ 55.4 µM)	2	17.8 ± 1.3 (≈ 39.7 µM)	2.8	49.6 ± 2.7 (≈ 111 µM)	–
CC(C)Cc1ccc(C(C)C(=O)O)cc1 (stereo not drawn) [Ibuprofen, ibuprofen, reference compound]	–	–	–	–	–	–	–	–	–	–	–	–	–	% Inhibition (%I) of paw oedema ([2]; 1 h): 15.62%; Increase in Paw Oedema ([2]; 1 h): 0.69 ± 0.16 mL; % Inhibition (%I) of paw oedema ([2]; 2 h): 25.62%; Increase in Paw Oedema ([2]; 2 h): 1.57 ± 0.21 mL; % Inhibition (%I) of paw oedema ([2]; 3 h): 28.5%; Increase in Paw Oedema ([2]; 3 h): 1.82 ± 0.38 mL; % Inhibition (%I) of paw oedema ([2]; 4 h): 62.66%; Increase in Paw Oedema ([2]; 4 h): 1.49 ± 0.47 mL; % Inhibition (%I) of paw oedema ([2]; 5 h): 70.9%; Increase in Paw Oedema ([2]; 5 h): 1.20 ± 0.37 mL; Histopathology of paw skin (H&E) (dermal inflammation): mild dermal inflammation; GSH protection (GPx; ibuprofen alone): 78.74%; GPx (U/gm Tissue) (GPx; [5]): 93.35 ± 8.84 U/gm Tissue; CAT (U/gm Tissue) (CAT): 2.20 ± 0.20 U/gm Tissue; SOD protection (SOD; ibuprofen alone): 75.17%; SOD (U/gm Tissue) (SOD; [5]): 142.1 ± 14.71 U/gm Tissue
O=C1O[C@H]([C@@H](O)CO)C(O)=C1O [Ascorbic acid]	–	–	–	–	–	–	–	–	–	–	–	–	–	IC50 in ABTS assay (ABTS antioxidant assay; fractions of lettuce seedcake extract, unit not given): 29.47 ± 0.17; % inhibition in ABTS assay (ABTS antioxidant assay; seed cakes' methanolic extract at 1 mg/mL): 88.1%
